Test results as given in US20260069523A1, “SKIN CARE COMPOSITION AND USE THEREOF” (NANJING NUTRABUILDING BIO-TECH CO., LTD., priority 2023, published 2026).

What was measured:
TNF-α = experiment: Anti-inflammatory test: TNF-α in UVB-stimulated keratinocytes; format: cell-based, human; settings: UV-B 50 mJ/cm^2 irradiated keratinocytes, 24 h, supernatant, maximum non-cytotoxic dose (combinations: half dose each)
Description: (§1) Cell culture: HaCat, a normal human epidermal keratinocyte (NHEK) cell line, was purchased from Wuhan Saios Biotechnology Co., Ltd. The cells were stored in a humid environment (95% air and 5% carbon dioxide at 37° C.) and cultured in DMEM supplemented with 10% heat inactivated FBS, 2 mM glutamine and 1% penicillin/streptomycin. The culture was harvested and the cell morphology was examined by phase contrast microscope. Cell suspension was counted with a hemocytometer (Marienfeld, Germany) to monitor the number of cells.
(§2) UVB stimulation: Keratinocytes were inoculated into a 12-well plate (50,000 cells/mL) and cultured to a confluency of ˜80%. The cells were washed once with phosphate buffered saline (PBS) at room temperature, 0.5 mL PBS was added to the cells, and then irradiated with ultraviolet rays. The cells were exposed to 50 mJ/cm^2 UV-B (Philips, 311 nm) for 2 minutes. […]
(§3) Detection of inflammatory factors: the standard curve of each cytokine (TNF-α, IL-8, IL-6) were generated by using the reference cytokine samples provided by the kit. […] The absorbance (OD value) was measured by microplate reader at the wavelength of 450 nm, and the concentration was calculated according to the standard curve.

IL-6 = experiment: Anti-inflammatory test: IL-6 in UVB-stimulated keratinocytes; format: cell-based, human; settings: UV-B 50 mJ/cm^2 irradiated keratinocytes, 24 h, supernatant, maximum non-cytotoxic dose (combinations: half dose each)
Description: as §1, §2, §3

IL-8 = experiment: Anti-inflammatory test: IL-8 in UVB-stimulated keratinocytes; format: cell-based, human; settings: UV-B 50 mJ/cm^2 irradiated keratinocytes, 24 h, supernatant, maximum non-cytotoxic dose (combinations: half dose each)
Description: as §1, §2, §3

tyrosinase = experiment: Whitening test: inhibition of tyrosinase; settings: 1 mg/mL sample solutions (combinations mixed 1:1 or 1:1:1), tyrosine substrate, 30° C., absorbance 475 nm

| SMILES | content of TNF-α (TNF-α) | content of IL-6 (IL-6) | content of IL-8 (IL-8) | inhibition rate on tyrosinase (tyrosinase) |
| --- | --- | --- | --- | --- |
| C[N+](C)(C)[C@@H](Cc1c[nH]c(=S)[nH]1)C(=O)[O-] [EGT, ergothioneine] | about 95 pg/ml | 28 pg/mL | 23 pg/mL | 68% |
| COc1cc(CCC(=O)CC(=O)CCc2ccc(O)c(OC)c2)ccc1O [THC, tetrahydrocurcumin] | about 90 pg/ml | 27 pg/mL | 25 pg/mL | – |
